Assay results: US20070254312A1, “Protein Kinase Inhibitors and Methods for Identiying Same” (priority 2004, published 2007)
Starred links: 1 amine or outer side, 2 acyl side, 3 side chain; linkers in the order of their positions; H or OH if unused. Non-standard residues stand in square brackets, D forms with d. Residues, ends and D or L forms follow the SMILES beside them. *: point of attachment. Benzoyl(4-(pyrrol-1-yl)) = O=C(c1ccc(-n2cccc2)cc1)*; Phenylacetyl(3,4-Cl2) = O=C(Cc1ccc(Cl)c(Cl)c1)*; Cysteamide = C(CS[*:3])N[*:1]; Dap = NC[C@H](N)C(=O)O

Legend:
PKCτ = target: T1, PKCτ (Homo sapiens, UniProt P41743); test: PKC isoform assay, Example 1; type: biochemical
T1 construct: purchased Pan Vera
T1 sequence (P41743 1-596): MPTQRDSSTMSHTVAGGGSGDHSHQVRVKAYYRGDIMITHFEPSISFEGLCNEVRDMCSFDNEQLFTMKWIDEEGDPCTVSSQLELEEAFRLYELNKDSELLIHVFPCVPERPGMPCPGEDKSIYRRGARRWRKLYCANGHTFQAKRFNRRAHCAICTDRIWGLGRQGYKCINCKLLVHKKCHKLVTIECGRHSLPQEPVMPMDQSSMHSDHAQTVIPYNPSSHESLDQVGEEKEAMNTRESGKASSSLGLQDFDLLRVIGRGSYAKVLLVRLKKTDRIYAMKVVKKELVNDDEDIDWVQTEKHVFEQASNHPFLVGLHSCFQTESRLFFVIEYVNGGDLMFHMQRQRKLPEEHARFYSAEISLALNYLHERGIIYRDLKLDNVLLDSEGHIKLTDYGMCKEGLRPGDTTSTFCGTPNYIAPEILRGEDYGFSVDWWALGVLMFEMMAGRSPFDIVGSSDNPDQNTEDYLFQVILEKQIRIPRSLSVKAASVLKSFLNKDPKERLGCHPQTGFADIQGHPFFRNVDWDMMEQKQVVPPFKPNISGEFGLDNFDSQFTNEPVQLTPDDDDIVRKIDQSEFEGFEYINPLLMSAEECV
From the text: (§1) Protein Kinase C Assay (general). The peptides Ac-Ser-Phe-Arg-Arg-Arg-NH2 (for PKC α, β and γ) and acetyl-[…]NH2 (for PKC ε and ζ) were used as substrates.

PKCα = PKCα (Homo sapiens, UniProt P17252); details: cited from earlier work
PKCγ = PKCγ (Homo sapiens, UniProt P05129); test: PKC isoform assay, Example 1; type: biochemical; parameters: purchased Pan Vera
Experimental: Protein Kinase C Assay (general). The peptides […] (for PKC α, β and γ) and acetyl-[…] (for PKC ε and ζ) were used as substrates. […] Total reaction volume was 50 μL. […] Following an additional 5 min incubation at ambient temperature, 75 μL from each reaction well was transferred into each well of a Unifilter (P81 cellulose phosphate paper) assay plate and washed four times with 0.1% phosphoric acid in water. […] IC50 values were calculated using GraFit (Erithacus Software Limited) and Ki values were calculated using Enzyme Kinetics, SigmaPlot (SPSS Inc.)

PKCε = target: T2, PKCε (Homo sapiens, UniProt Q02156); test: PKC isoform assay, Example 1; type: biochemical; parameters: purchased Pan Vera
T2 sequence (Q02156 1-737): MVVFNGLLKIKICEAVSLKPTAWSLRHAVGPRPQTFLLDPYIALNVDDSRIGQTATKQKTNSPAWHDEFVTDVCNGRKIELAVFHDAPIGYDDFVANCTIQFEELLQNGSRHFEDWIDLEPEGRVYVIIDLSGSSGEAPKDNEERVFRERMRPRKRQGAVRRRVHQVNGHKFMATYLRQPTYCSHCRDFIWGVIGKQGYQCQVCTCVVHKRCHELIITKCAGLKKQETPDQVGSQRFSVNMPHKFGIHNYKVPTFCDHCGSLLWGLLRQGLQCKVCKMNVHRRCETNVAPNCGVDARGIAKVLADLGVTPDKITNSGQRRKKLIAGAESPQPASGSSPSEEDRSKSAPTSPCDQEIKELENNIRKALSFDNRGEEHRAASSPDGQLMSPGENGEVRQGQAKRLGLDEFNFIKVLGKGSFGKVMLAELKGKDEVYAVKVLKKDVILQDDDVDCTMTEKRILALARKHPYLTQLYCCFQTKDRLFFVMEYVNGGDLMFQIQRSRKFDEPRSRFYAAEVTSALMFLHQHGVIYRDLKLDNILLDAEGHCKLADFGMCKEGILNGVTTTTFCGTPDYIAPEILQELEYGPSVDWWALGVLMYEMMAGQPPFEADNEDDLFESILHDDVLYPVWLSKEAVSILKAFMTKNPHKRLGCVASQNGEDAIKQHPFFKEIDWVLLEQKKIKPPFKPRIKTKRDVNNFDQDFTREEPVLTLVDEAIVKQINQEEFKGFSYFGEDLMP
Experimental: as §1
(§2) PKCε and ζ Assay (IC50 determinations). […] 10 μL enzyme diluted buffer containing 10 mM HEPES (pH 7.5), 10 mM DTT, BSA(3.8 mg/mL), 10 mM EDTA.4Na.2H2O and PKC (20 ng/μL) were added last to this buffer. Reactions were carried out as described above for the Protein Kinase Cα assay.

PKCζ = target: T3, PKCζ (Homo sapiens, UniProt Q05513); test: PKC isoform assay, Example 1; type: biochemical; parameters: purchased Pan Vera
T3 sequence (Q05513 1-592): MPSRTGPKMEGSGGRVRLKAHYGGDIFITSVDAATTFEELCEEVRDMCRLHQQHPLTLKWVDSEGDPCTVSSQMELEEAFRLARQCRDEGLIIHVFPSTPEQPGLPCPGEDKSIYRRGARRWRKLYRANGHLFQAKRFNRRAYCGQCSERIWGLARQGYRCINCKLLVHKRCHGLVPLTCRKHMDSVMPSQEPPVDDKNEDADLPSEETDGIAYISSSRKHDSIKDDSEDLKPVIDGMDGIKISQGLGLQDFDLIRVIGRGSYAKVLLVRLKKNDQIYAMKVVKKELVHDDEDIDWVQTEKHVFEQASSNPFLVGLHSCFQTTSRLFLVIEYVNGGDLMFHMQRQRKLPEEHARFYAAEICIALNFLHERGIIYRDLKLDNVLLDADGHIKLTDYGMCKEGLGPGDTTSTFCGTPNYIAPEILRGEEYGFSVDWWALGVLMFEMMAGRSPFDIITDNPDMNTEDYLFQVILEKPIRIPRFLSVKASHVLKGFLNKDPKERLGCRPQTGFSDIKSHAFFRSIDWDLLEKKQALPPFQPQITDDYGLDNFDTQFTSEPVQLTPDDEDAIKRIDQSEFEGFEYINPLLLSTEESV
Experimental: as §1, §2

PKCθ = PKCθ (Homo sapiens, UniProt Q04759); parameters: purchased Panvera; details: literature values; relative to most potently inhibited isoform (=1); cited from earlier work
Sequence of PKCθ (Q04759 whole entry, canonical isoform): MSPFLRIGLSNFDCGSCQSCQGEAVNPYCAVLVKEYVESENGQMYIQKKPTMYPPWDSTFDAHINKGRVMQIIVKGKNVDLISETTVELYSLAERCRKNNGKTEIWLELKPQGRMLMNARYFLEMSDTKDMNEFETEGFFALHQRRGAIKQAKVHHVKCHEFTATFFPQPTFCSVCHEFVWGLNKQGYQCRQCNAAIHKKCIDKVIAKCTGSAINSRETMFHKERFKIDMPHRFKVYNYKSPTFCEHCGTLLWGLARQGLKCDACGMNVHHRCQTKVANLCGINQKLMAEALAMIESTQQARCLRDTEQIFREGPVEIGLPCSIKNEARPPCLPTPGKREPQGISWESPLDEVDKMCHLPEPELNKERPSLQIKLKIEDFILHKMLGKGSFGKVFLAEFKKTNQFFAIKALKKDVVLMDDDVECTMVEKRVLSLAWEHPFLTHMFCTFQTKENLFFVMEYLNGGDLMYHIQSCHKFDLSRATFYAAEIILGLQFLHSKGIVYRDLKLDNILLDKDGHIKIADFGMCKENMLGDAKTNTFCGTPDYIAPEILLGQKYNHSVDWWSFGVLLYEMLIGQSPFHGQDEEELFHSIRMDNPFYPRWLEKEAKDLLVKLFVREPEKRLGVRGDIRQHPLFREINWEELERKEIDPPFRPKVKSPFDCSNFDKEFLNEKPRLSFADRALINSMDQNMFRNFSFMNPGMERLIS

selectivity for PKCα versus PKCτ (PKCτ): 940 fold | selectivity for PKCα versus PKCγ (PKCγ): 580 fold | selectivity for PKCα versus PKCε (PKCε): 600 fold | selectivity for PKCα versus PKCζ (PKCζ): 640 fold
SMILES: CC(C)C[C@H](NC(=O)[C@H](C)NC(=O)CNC(=O)[C@H](CCCNC(=N)N)NC(=O)[C@H](CCCNC(=N)N)NC(=O)[C@H](C)NC(=O)Cc1ccc(Cl)c(Cl)c1)C(=O)N[C@@H](CCCNC(=N)N)C(=O)N[C@@H](CNC(=O)c1ccc(-n2cccc2)cc1)C(=O)N[C@@H](C)C(=O)NCCS [Compound 6] ({Phenylacetyl(3,4-Cl2)}-ARRGALR[Dap](Benzoyl(4-(pyrrol-1-yl)))A-Cysteamide)
Ki (PKCα; Lee et al., 2004, equals the Ki of compound 6 in Table 1, read-out: IC50 or Ki of the most potently inhibited isoform, PKC α (in parentheses)): 0.8 nM | Fold selectivity (IC50), PKC α (PKCα; literature values, relative to most potently inhibited isoform (=1)): 1 fold | Fold selectivity (IC50), PKC θ (PKCθ): 1210 fold
